Data taken from patent publication US9011863B2, “Combinations of kinase inhibitors for the treatment of cancer” (Exelixis, Inc., priority 2010, dated 2015).

How the values were obtained:
[1] = tested on: subcutaneous A-549 human lung xenografts; assay: antitumor activity in A549 xenografts; format: in vivo, Swiss nude mice; settings: for activity rating: compound A at 30 mg/kg PO daily (text), 30 mg/kg
Source text: Control groups were left untreated.
Animal body weights included the tumor weights.

[2] = tested on: receptors of tyrosine kinase (RTKs) in BT474 cells; assay: phospho-RTK arrays and RTK qPCR in BT474 cells; format: cell-based, human
Procedure: FIG. 19B depicts a photomicrograph of BT474 cells were treated with 6 μM compound A over a time course up to 24 hours as indicated. Cell lysates were prepared, and 200 μg of total protein were hybridized to arrays containing probes for 42 different receptors of tyrosine kinase (RTKs).
FIG. 19C depicts a photomicrograph of BT474 cells were treated with 6 μM compound A over a time course up to 24 hours as indicated.
FIG. 19D depicts a bar-graph representing the amount of RTK mRNA as identified using real-time qPCR analysis of the indicated RTKs in RNA collected from BT474 cells treated with either DMSO or 10 μM compound A for 6 hours.
Immunoprecipitation, immunoblotting, and RTK assays were performed according to published methods. Primary antibodies included AKT, pAKT^S473, pAKT^T308, ERK, pERK^T202/Y204, pHER2^Y1248, pHER3^Y1197, pHER3^Y1222, pHER3^Y1289, S6, pS6^S240/244, p27, pRb^S780, FoxO1, FoxO3a, MEK1/2 (Cell Signaling Technology, Danvers, Mass., USA), p85, 4G10 pTyr (Millipore, Billerica, Mass., USA), HER3, CyclinD1, RhoA, HDAC3 (Santa Cruz Biotechnology, Santa Cruz, Calif., USA), PARP (BD Transduction Laboratories), β-actin (Sigma, St. Louis, Mo., USA), and HER2 (Neomarkers, division of Thermo Scientific, Freemenot, Calif., USA). […] Immunoreactive signals were detected by enhanced chemilluminsecence (Pierce, Rockford, Ill., USA). […]

[3] = tested on: phospho-Akt, HER3, RTKs and intracellular kinases in HCC1937 cells; assay: phospho-RTK / phospho-kinase arrays and Western blotting in HCC1937 cells; format: cell-based, human
Procedure: FIG. 1A. siRNA screen to identify kinases that potentially compensate for PI3K inhibition. HCC1937 breast cancer cells were treated with the indicated amounts of compound A for 6, 24, or 72 hours in medium containing 2.5% FBS. Cell lysates analyzed by immunoblotting with the indicated antibodies.
FIGS. 3A and 3B. PI3K inhibition induces phosphorylation of RTKs and intracellular kinases. HCC1937 cells were treated with 10 μM compound A in medium containing 2.5% FBS for 0, 8, 24, or 48 hours. Media and drugs were replenished every 24 hours. Lysates were used to probe phospho-RTK arrays (FIG. 3A) or phospho-kinase arrays (FIG. 3B) (R&D systems). Corner spots are positive controls. Candidate kinases from the siRNA screen that are also phosphorylated upon treatment with compound A are shown in red.
FIGS. 4A and 4B. HCC1937 cells were treated with 10 μM compound A in medium containing 2.5% FBS for 0, 8, 24, or 48 hours. Media and drugs were replenished every 24 hours. Lysates were used to probe phospho-RTK arrays (A) or phospho-kinase arrays (B) (R&D systems). Corner spots are positive controls. Candidate kinases from the siRNA screen that are also phosphorylated upon treatment with compound A are shown in red.
(§1) The purpose of the present study is to identify kinases and kinase-regulated signaling pathways that compensate for PI3K inhibition in human breast cancer cells. To this end, siRNA screen is employed targeting 779 human kinases in order to determine if downregulation of specific kinases increases the sensitivity of HCC1937 human breast cancer cells to the PI3K inhibitor compound A, which a compound of formula I and of Table 1. […] Following reverse transfection with the siRNA library, cells are treated with either DMSO or 10 μM compound A for 72 hours in a medium containing 2.5% fetal bovine serum (FIGS. 1A and 2) and the alamar blue assay is used to measure cell viability FIG. 1B. […] HCC1937 cells were treated with 10 μM compound A in medium containing 2.5% FBS for 0, 2, 8, or 24 hours. RNA was isolated with Trizol and purified using the RNeasy column (Qiagen). Gene expression from three independent experiments was measured using the Gene titan 3′ microarray. *, p<0.05; **, p<0.01 versus 0 hours, as shown in FIG. 5.

[4] = tested on: HER3 expression in A549 human lung xenografts; assay: HER3 modulation in A549 tumors; format: in vivo, Swiss nude mice
Procedure: Briefly, mice bearing measurable lung A549 tumors implanted SC have been left untreated or treated either by MM121 as a single agent (at dose of 5 mg/kg or 30 mg/kg, one administration) or by compound A as a single agent (at dose of 30 mg/kg or 100 mg/kg, daily administrations) or by a combination of both (at 30 mg/kg for MM121 and 100 mg/kg for compound A). The HER3 expression level in xenografted tumors has been followed for up to 96 hours.

[5] = tested on: HCC1937 human breast cancer cells; assay: HCC1937 cell viability, alamar blue assay; format: cell-based; settings: read-out: growth inhibition IC50
Procedure: FIG. 1B. siRNA screen to identify kinases that potentially compensate for PI3K inhibition. HCC1937 cells were seeded in triplicate in a 96-well plate and treated with DMSO or the indicated concentration of compound A for 72 hours. Cell viability was measured by the alamar blue assay.
as §1

[6] = Compound A PO 5 (160) mg/kg Q1Dx32
[7] = Compound A PO 100 (3200) mg/kg Q1Dx32

COc1ccc(Cl)c(Nc2nc3ccccc3nc2NS(=O)(=O)c2cccc(NC(=O)C(C)(C)N)c2)c1 [Compound A]
Biological response at day 68 [1, 6]: Very | Median ΔT/ΔC in % day 68 [1, 6]: 5% | Biological response at day 68 [1, 7]: highly active | Median % of regression on day 68 [1, 7]: 15% | Median ΔT/ΔC in % day 68 [1, 7]: −4% | Biological response at day 68 ([1]; Compound A PO 100 (3200) mg/kg Q1Dx32, listed as compound A): high activity | ΔT/ΔC (treated vs control tumor volume change) ([1]; compound A at 30 mg/kg PO daily): 5% | activity rating [1]: very active | activity rating ([1]; listed as compound A): high activity | phospho-RTK arrays ([2]; BT474, 6 μM, 24-h time course): increase in not only HER3, but also multiple other RTKs | RTK mRNAs by qPCR ([2]; BT474, 10 μM, 6 hours): increase in ERBB4, IGF-IR, InsR, EphA1, FGFR2, and FGFR3 mRNAs | phospho-Akt and HER3 by Western blotting ([3]; HCC1937): decreases phospho-Akt at S473 and T308 and increases phospho- and total HER3 | phosphorylation of MAP kinases ([3]; HCC1937): increases phosphorylation of the MAP kinases ERK, JNK, and p38 MAPK | phospho-Akt ([3]; HCC1937, 10 μM, 48 hours): phosphorylation at S473 is partially restored | phospho-Akt ([3]; HCC1937, 10 μM, eight and 24 hour treatments): suppressed phospho-Akt at both S473 and T308 | expression and/or phosphorylation of RTKs and intracellular kinases ([3]; HCC1937, 10 μM, within 8-48 hours): increased expression and/or phosphorylation of many RTKs and intracellular kinases | HER3 expression, Change vs Control (%) ([4]; Compound A 30 mg/kg PO: Q1Dx1, 4 h): −3% | HER3 expression, Change vs Control (%) ([4]; Compound A 30 mg/kg PO: Q1Dx1, 24 h): 12% | HER3 expression, Change vs Control (%) ([4]; Compound A 30 mg/kg PO: Q1Dx2, 24 h): 23% | HER3 expression, Change vs Control (%) ([4]; Compound A 30 mg/kg PO: Q1Dx3, 24 h): 27% | HER3 expression, Change vs Control (%) ([4]; Compound A 100 mg/kg PO: Q1Dx1, 4 h): 10% | HER3 expression, Change vs Control (%) ([4]; Compound A 100 mg/kg PO: Q1Dx1, 24 h): 19% | HER3 expression, Change vs Control (%) ([4]; Compound A 100 mg/kg PO: Q1Dx2, 24 h): 45% | HER3 expression, Change vs Control (%) ([4]; Compound A 100 mg/kg PO: Q1Dx3, 24 h): 37% | HER3 expression in A549 lung model (summary of Table 5) ([4]; up to 96 hours): slight increase of HER3 expression | IC50 [5]: 10 µM
